Measured values from patent publication US8735398B2 (Bristol-Myers Squibb Company, priority 2009, dated 2014).
Read-outs that look alike come from different tables or passages of the source.

Tested on: HCV 1b genotype
Experiment: HCV replicon assay (HCV-neo replicon cells, wild-type)
Assay type: cell-based, Hepatitis C virus
Settings: HCV 1b genotype replicon
Procedure, shortened: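 HCV-neo replicon cells (wild-type) and replicon cells carrying NS5A resistance substitutions were treated with compounds; assay per O'Boyle et al. 2005, with luciferase-reporter read-out variants also used.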

[1] = Hepatitis C virus, class symbol, read-out: EC50 Range against HCV 1b
[2] = Hepatitis C virus, read-out: EC50 1b
[3] = Hepatitis C virus, class symbols, read-out: EC50 Range against HCV 1b

## C[C@H](NC(=O)[C@@H](O)c1ccccc1)C(=O)Nc1ccc(-c2nnc(-c3ccc(NC(=O)[C@H](C)NC(=O)[C@@H](O)c4ccccc4)cc3)o2)cc1 [RK-24, (2S,2′S)-N,N′-(1,3,4-oxadiazole-2,5-diyldi-4,1-phenylene)bis(2-(((2S)-2-hydroxy-2-phenylacetyl)amino)propanamide)]
[1]
  EC50: 100 to 999 nM

## CC(C)(C)O[C@@H]1C[C@@H](C(=O)Nc2ccc(-c3cc(-c4ccc(NC(=O)[C@@H]5C[C@@H](OC(C)(C)C)CN5C(=O)OCc5ccccc5)cc4)[nH]n3)cc2)N(C(=O)OCc2ccccc2)C1 [OL-49, dibenzyl (2S,4R,2′S,4′R)-2,2′-(1H-pyrazole-3,5-diylbis(4,1-phenylenecarbamoyl))bis(4-tert-butoxy-1-pyrrolidinecarboxylate)]
[1]
  EC50: 100 to 999 nM
[2]
  EC50: 230 nM

## CC(=O)O[C@@H](C(=O)N1CCC[C@H]1C(=O)Nc1ccc(-c2ccc(-c3ccc(NC(=O)[C@@H]4CCCN4C(=O)[C@H](OC(C)=O)c4ccccc4)cc3)o2)cc1)c1ccccc1
[1]
  EC50: < 4.57 nM

## CC(O)(C(=O)N1CCC[C@H]1C(=O)Nc1ccc(-c2ccc(-c3ccc(NC(=O)[C@@H]4CCCN4C(=O)[C@@](C)(O)c4ccccc4)cc3)o2)cc1)c1ccccc1 (stereo partly drawn) [JG-59, (2S)-1-((2S)-2-hydroxy-2-phenylpropanoyl)-N-(4-(5-(4-((((2S)-1-(2-hydroxy-2-phenylpropanoyl)-2-pyrrolidinyl)carbonyl)amino)phenyl)-2-furyl)phenyl)-2-pyrrolidinecarboxamide]
[1]
  EC50: < 4.57 nM

## O=C(Nc1ccc(-c2cnc(-c3ccc(NC(=O)[C@@H]4CCCCN4C(=O)Cc4ccccc4)cc3)o2)cc1)[C@@H]1CCCCN1C(=O)Cc1ccccc1 [JG-6, (2S,2′S)-N,N′-(1,3-oxazole-2,5-diyldi-4,1-phenylene)bis(1-(phenylacetyl)-2-piperidinecarboxamide)]
[1]
  EC50: 100 to 999 nM

## O=C(Nc1ccc(-c2cnc(-c3ccc(NC(=O)[C@@H]4CCCN4C(=O)C(c4ccccc4)n4c(=O)[nH]c5ccccc54)cc3)o2)cc1)[C@@H]1CCCN1C(=O)C(c1ccccc1)n1c(=O)[nH]c2ccccc21 (stereo partly drawn) [JR-11, (2S,2′S)-N,N′-(2,5-oxazolediyldi-4,1-phenylene)bis[1-[(2,3-dihydro-2-oxo-1H-benzimidazol-1-yl)phenylacetyl]-2-pyrrolidinecarboxamide]]
[3]
  EC50: 100 to 999 nM

## O=C(Nc1ccc(-c2cc(-c3ccc(NC(=O)[C@@H]4CCCN4C(=O)Cc4ccccc4)cc3)[nH]n2)cc1)[C@@H]1CCCN1C(=O)Cc1ccccc1 [OL-27, (2S,2′S)-N,N′-(1H-pyrazole-3,5-diyldi-4,1-phenylene)bis[1-(phenylacetyl)-2-pyrrolidinecarboxamide]]
[1]
  EC50: 4.57 to 99 nM
[2]
  EC50: 10 nM

## O=C(Nc1ccc(-c2cc(-c3ccc(NC(=O)[C@@H]4C=CCN4C(=O)CC4CCCC4)cc3)[nH]n2)cc1)[C@@H]1C=CCN1C(=O)CC1CCCC1 [OL-39, (2S,2′S)-N,N′-(1H-pyrazole-3,5-diyldi-4,1-phenylene)bis[1-(cyclopentylacetyl)-2,5-dihydro-1H-pyrrole-2-carboxamide]]
[1]
  EC50: 1000 to 10000 nM

## O=C(Nc1ccc(-c2n[nH]c(=O)n2-c2ccc(NC(=O)[C@@H]3CCCN3C(=O)OCc3ccccc3)cc2)cc1)[C@@H]1CCCN1C(=O)OCc1ccccc1 [OL-13, (2S,2′S)-2,2′-[(1,5-dihydro-5-oxo-4H-1,2,4-triazole-3,4-diyl)bis(4,1-phenyleneiminocarbonyl)]bis-1-pyrrolidinecarboxylic acid, bis(phenylmethyl) ester,]
[1]
  EC50: 1000 to 10000 nM

## O=C(Nc1ccc(-c2cc(-c3ccc(NC(=O)[C@@H]4CCCN4C(=O)c4ccncc4)cc3)[nH]n2)cc1)[C@@H]1CCCN1C(=O)c1ccncc1 [OL-34, (2S,2′S)-N,N′-(1H-pyrazole-3,5-diyldi-4,1-phenylene)bis(1-isonicotinoyl-2-pyrrolidinecarboxamide)]
[1]
  EC50: 1000 to 10000 nM

## Cn1cc(C(=O)N2CCC[C@H]2C(=O)Nc2ccc(-c3nnc(-c4ccc(NC(=O)[C@@H]5CCCN5C(=O)c5cn(C)c6ccccc56)cc4)o3)cc2)c2ccccc21 [RK-42, (2S,2′S)-N,N′-(1,3,4-oxadiazole-2,5-diyldi-4,1-phenylene)bis(1-((1-methyl-1H-indol-3-yl)carbonyl)-2-pyrrolidinecarboxamide)]
[3]
  EC50: 1000 to 10000 nM

## CC1(C(=O)N2CCC[C@H]2C(=O)Nc2ccc(-c3cnc(-c4ccc(NC(=O)[C@@H]5CCCN5C(=O)C5(C)CCC(=O)N5Cc5ccccc5)cc4)o3)cc2)CCC(=O)N1Cc1ccccc1 (stereo partly drawn) [Example D-23, (2S,2′S)-N,N′-(1,3-oxazole-2,5-diyldi-4,1-phenylene)bis(1-((1-benzyl-2-methyl-5-oxo-2-pyrrolidinyl)carbonyl)-2-pyrrolidinecarboxamide)]
[1]
  EC50: 1000 to 10000 nM

## COc1cccc2c(C(=O)N3CCC[C@H]3C(=O)Nc3ccc(-c4cnc(-c5ccc(NC(=O)[C@@H]6CCCN6C(=O)c6nc(Cl)cc7c(OC)cccc67)cc5)o4)cc3)nc(Cl)cc12 [OL-52, (2S,2′S)-N,N′-(1,3-oxazole-2,5-diyldi-4,1-phenylene)bis(1-((3-chloro-5-methoxy-1-isoquinolinyl)carbonyl)-2-pyrrolidinecarboxamide)]
[1]
  EC50: 100 to 999 nM
[2]
  EC50: 30 nM

## O=C(Nc1ccc(-c2cnc(-c3ccc(NC(=O)[C@@H]4CCCN4C(=O)C(O)c4cccs4)cc3)o2)cc1)[C@@H]1CCCN1C(=O)C(O)c1cccs1 (stereo partly drawn) [JR-6, (2S,2′S)-N,N′-(2,5-oxazolediyldi-4,1-phenylene)bis[1-(hydroxy-2-thienylacetyl)-2-pyrrolidinecarboxamide]]
[3]
  EC50: < 4.57 nM
[2]
  EC50: < 5 nM

## Cc1cccc(CC(=O)N2C[C@H](OC(C)(C)C)C[C@H]2C(=O)Nc2ccc(-c3cnc(-c4ccc(NC(=O)[C@@H]5C[C@@H](OC(C)(C)C)CN5C(=O)Cc5cccc(C)c5)cc4)o3)cc2)c1 [XY-69, (2S,4R,2′S,4′R)-N,N′-(1,3-oxazole-2,5-diyldi-4,1-phenylene)bis(4-tert-butoxy-1-((3-methylphenyl)acetyl)-2-pyrrolidinecarboxamide)]
[3]
  EC50: 100 to 999 nM

## O=C(Nc1ccc(-c2cnc(-c3ccc(NC(=O)C4CC5CC5N4C(=O)C4CCCO4)cc3)o2)cc1)C1CC2CC2N1C(=O)C1CCCO1 [CB-7, (1S,3S,5S,1′S,3′S,5′S)-N,N′-(1,3-oxazole-2,5-diyldi-4,1-phenylene)bis(2-((2R)-tetrahydro-2-furanylcarbonyl)-2-azabicyclo[3.1.0]hexane-3-carboxamide)]
Class symbol, read-out: EC50 Range against HCV 1b
  EC50: 100 to 999 nM

## COc1cccc2c(C(=O)N3CCC[C@H]3C(=O)Nc3ccc(-c4nc[nH]c4-c4ccc(NC(=O)[C@@H]5CCCN5C(=O)c5nc(Cl)cc6c(OC)cccc56)cc4)cc3)nc(Cl)cc12 [JG-50, (2S,2′S)-N,N′-(1H-imidazole-4,5-diyldi-4,1-phenylene)bis(1-((3-chloro-5-methoxy-1-isoquinolinyl)carbonyl)-2-pyrrolidinecarboxamide)]
[1]
  EC50: 100 to 999 nM

## CC(=O)N1CCC[C@H]1C(=O)Nc1ccc(-c2ncc(-c3ccc(NC(=O)[C@@H]4CCCN4C(=O)Cc4ccccc4)cc3)o2)cc1 [MS-6, (2S)-1-acetyl-N-(4-(5-(4-((((2S)-1-(phenylacetyl)-2-pyrrolidinyl)carbonyl)amino)phenyl)-1,3-oxazol-2-yl)phenyl)-2-pyrrolidinecarboxamide]
[1]
  EC50: 100 to 999 nM
[2]
  EC50: 188 nM

## CC(O)(C(=O)N1CCC[C@H]1C(=O)Nc1ccc(-c2ncc(-c3ccc(NC(=O)[C@@H]4CCCN4C(=O)[C@@](C)(O)c4ccccc4)cc3)o2)cc1)c1ccccc1 (stereo partly drawn) [JG-22, (2S)-1-((2S)-2-hydroxy-2-phenylpropanoyl)-N-(4-(2-(4-((((2S)-1-(2-hydroxy-2-phenylpropanoyl)-2-pyrrolidinyl)carbonyl)amino)phenyl)-1,3-oxazol-5-yl)phenyl)-2-pyrrolidinecarboxamide]
[1]
  EC50: < 4.57 nM
[2]
  EC50: < 5 nM

## COc1cc(C(=O)N2CCC[C@H](C(=O)Nc3ccc(-c4nnc(-c5ccc(NC(=O)[C@H]6CCCN(C(=O)c7cc(OC)c8ccccc8n7)C6)cc5)o4)cc3)C2)nc2ccccc12 [RK-26, (3S,3′S)-N,N′-(1,3,4-oxadiazole-2,5-diyldi-4,1-phenylene)bis(1-((4-methoxy-2-quinolinyl)carbonyl)-3-piperidinecarboxamide)]
[1]
  EC50: 1000 to 10000 nM

## O=C(Nc1ccc(-c2cnc(-c3ccc(NC(=O)[C@@H]4CCCN4C(=O)c4sccc4Cl)cc3)o2)cc1)[C@@H]1CCCN1C(=O)c1sccc1Cl [XY-25, (2S,2′S)-N,N′-(1,3-oxazole-2,5-diyldi-4,1-phenylene)bis(1-((3-chloro-2-thienyl)carbonyl)-2-pyrrolidinecarboxamide)]
[3]
  EC50: 1000 to 10000 nM

## COc1cc(C(=O)N[C@@H](C)C(=O)Nc2ccc(-c3nnc(-c4ccc(NC(=O)[C@H](C)NC(=O)c5cc(Cl)nc(OC)c5)cc4)o3)cc2)cc(Cl)n1 [RK-41, N,N′-(1,3,4-oxadiazole-2,5-diylbis(4,1-phenyleneimino((2S)-1-oxo-1,2-propanediyl)))bis(2-chloro-6-methoxyisonicotinamide)]
[3]
  EC50: 1000 to 10000 nM

## O=C(Nc1ccc(-c2nc[nH]c2-c2ccc(NC(=O)[C@@H]3CCCN3C(=O)c3nc(Cl)cc4ccccc34)cc2)cc1)[C@@H]1CCCN1C(=O)c1nc(Cl)cc2ccccc12 [JG-49, (2S,2′S)-N,N′-(1H-imidazole-4,5-diyldi-4,1-phenylene)bis(1-((3-chloro-1-isoquinolinyl)carbonyl)-2-pyrrolidinecarboxamide)]
[1]
  EC50: 1000 to 10000 nM

## O=C(Nc1ccc(-c2cc(-c3ccc(NC(=O)[C@@H]4CCCN4C(=O)c4nc(Cl)cc5ccccc45)cc3)[nH]n2)cc1)[C@@H]1CCCN1C(=O)c1nc(Cl)cc2ccccc12 [OL-40, (2S,2′S)-N,N′-(1H-pyrazole-3,5-diyldi-4,1-phenylene)bis(1-((3-chloro-1-isoquinolinyl)carbonyl)-2-pyrrolidinecarboxamide)]
[1]
  EC50: 4.57 to 99 nM
